Experimental data reported in patent publication US20230062119A1, “USE OF BIOMARKERS IN IDENTIFYING PATIENTS THAT WILL BE RESPONSIVE TO TREATMENT WITH A PRMT5 INHIBITOR” (Merck Sharp & Dohme LLC, priority 2019, published 2023).
Like-named read-outs stand apart in the source and are kept apart here.

Target: T1, Full-length (FL)-PRMT5-MEP50 enzyme complex (Homo sapiens, UniProt O14744)
T1 construct: Full-length (FL)-PRMT5-MEP50 enzyme complex (recombinant proteins from baculovirus-transfected Sf21 cells: FL-PRMT5; MW=73837 kDa and FL-MEP50; MW=38614); made in house; host or cells: baculovirus-transfected Sf21 insect cells
Experiment: PRMT5-MEP50 Enzyme Methylation Assay
Type: biochemical
Conditions: 1.0 nM PRMT5-MEP50, 75 nM biotinylated peptide, 15 μM SAM
Outline: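 Compound was pre-incubated 60 min at 37°C with 1.0 nM enzyme and 15 μM SAM (final) in 50 mM Bicine pH 8.0, then 75 nM biotinylated H4R3(Me1) peptide was added and reacted 150 min; twenty-point 1:2 titration from 100000 nM, 1% DMSO. Formic acid quench; SAMDI mass spectrometry measured Me1-to-Me2 conversion, EC50 by 4- or 7-parameter regression.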

[1] = one EC50: 4 parameters single site sigmoidal model, EC50 1: first value of 7 parameters biphasic model, read-out: Enzyme Methylation Assay (EC50 or EC50 1)
[2] = second EC50 of 7 parameters biphasic model, read-out: Enzyme Methylation Assay (EC50 2)

T1 sequence (O14744 whole entry): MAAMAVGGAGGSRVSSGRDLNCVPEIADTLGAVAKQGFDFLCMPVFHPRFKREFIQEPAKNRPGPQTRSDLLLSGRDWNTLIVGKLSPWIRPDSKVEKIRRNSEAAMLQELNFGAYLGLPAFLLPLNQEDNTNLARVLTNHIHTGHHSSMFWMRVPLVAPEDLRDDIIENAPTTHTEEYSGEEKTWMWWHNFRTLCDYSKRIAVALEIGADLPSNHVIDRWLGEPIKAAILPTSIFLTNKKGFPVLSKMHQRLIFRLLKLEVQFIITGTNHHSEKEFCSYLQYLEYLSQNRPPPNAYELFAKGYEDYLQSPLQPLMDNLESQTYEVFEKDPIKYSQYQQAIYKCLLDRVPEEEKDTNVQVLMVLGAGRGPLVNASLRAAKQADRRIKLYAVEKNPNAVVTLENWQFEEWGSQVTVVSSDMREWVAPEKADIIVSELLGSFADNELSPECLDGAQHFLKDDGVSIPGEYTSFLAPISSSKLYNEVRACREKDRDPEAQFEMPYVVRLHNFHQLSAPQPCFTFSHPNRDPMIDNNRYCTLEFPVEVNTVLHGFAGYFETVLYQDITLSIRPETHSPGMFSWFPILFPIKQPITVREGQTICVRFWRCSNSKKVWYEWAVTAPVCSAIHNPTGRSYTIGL
T1 sequence (Q9BQA1 whole entry partner): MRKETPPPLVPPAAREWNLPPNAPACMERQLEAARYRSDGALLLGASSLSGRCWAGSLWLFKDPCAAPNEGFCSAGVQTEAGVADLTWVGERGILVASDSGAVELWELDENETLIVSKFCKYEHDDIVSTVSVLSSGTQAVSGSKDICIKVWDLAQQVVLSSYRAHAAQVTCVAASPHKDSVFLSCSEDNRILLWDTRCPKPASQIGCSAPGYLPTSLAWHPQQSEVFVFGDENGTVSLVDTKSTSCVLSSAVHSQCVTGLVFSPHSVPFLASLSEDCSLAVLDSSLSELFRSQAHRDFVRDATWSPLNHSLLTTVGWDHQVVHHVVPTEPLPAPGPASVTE

Row | Compound | EC50 [1] [nM] | EC50 [2] [nM]
1 | Cc1nc(N)c2ccn([C@@H]3O[C@@H]4[C@H](Cc5ccc6cc(Br)c(N)nc6c5)CC[C@]4(O)[C@H]3O)c2n1 [Example 61, (2R,3R,3aS,6S,6aR)-2-(4-amino-2-methyl-7H-pyrrolo[2,3-d]pyrimidin-7-yl)-6-((2-amino-3-bromoquinolin-7-yl)methyl)hexahydro-3aH-cyclopenta[b]furan-3,3a-diol] | 0.5 | 
2 | Cc1cn([C@@H]2O[C@@H]3[C@H](Cc4ccc5cc(F)c(N)nc5c4)CC[C@]3(O)[C@H]2O)c2ncnc(N)c12 [Example 62, (2R,3R,3aS,6S,6aR)-6-((2-amino-3-fluoroquinolin-7-yl)methyl)-2-(4-amino-5-methyl-7H-pyrrolo[2,3-d]pyrimidin-7-yl)hexahydro-3aH-cyclopenta[b]furan-3,3a-diol 2,2,2-trifluoroacetate] | 0.5 | 
3 | Cc1nc(N)c2ccn([C@@H]3O[C@@H]4[C@@H](Oc5ccc6cc(Br)c(N)nc6c5)CC[C@]4(O)[C@H]3O)c2n1 [Example 63, (2R,3R,3aS,6S,6aR)-2-(4-amino-2-methyl-7H-pyrrolo[2,3-d]pyrimidin-7-yl)-6-((2-amino-3-bromoquinolin-7-yl)oxy)hexahydro-3aH-cyclopenta[b]furan-3,3a-diol] | 0.4 | 
4 | Cc1cn([C@@H]2O[C@@H]3[C@H](Cc4ccc5cc(Cl)c(N)nc5c4)CC[C@]3(O)[C@H]2O)c2ncnc(N)c12 [Example 66, (2R,3R,3aS,6S,6aR)-6-((2-amino-3-chloroquinolin-7-yl)methyl)-2-(4-amino-5-methyl-7H-pyrrolo[2,3-d]pyrimidin-7-yl)hexahydro-3aH-cyclopenta[b]furan-3,3a-diol] | 0.3 | 
5 | Nc1nc2cc(C[C@@H]3CC[C@@]4(O)[C@@H]3O[C@@H](n3cc(F)c5c(N)ncnc53)[C@@H]4O)ccc2cc1Cl [Example 68, (2R,3R,3aS,6S,6aR)-6-((2-amino-3-chloroquinolin-7-yl)methyl)-2-(4-amino-5-fluoro-7H-pyrrolo[2,3-d]pyrimidin-7-yl)hexahydro-3aH-cyclopenta[b]furan-3,3a-diol] | 0.5 | 
6 | Cc1cn([C@@H]2O[C@@H]3[C@H](Cc4ccc5cc(Br)c(N)nc5c4)CC[C@]3(O)[C@H]2O)c2ncnc(N)c12 [Example 70, (2R,3R,3aS,6S,6aR)-6-((2-amino-3-bromoquinolin-7-yl)methyl)-2-(4-amino-5-methyl-7H-pyrrolo[2,3-d]pyrimidin-7-yl)hexahydro-3aH-cyclopenta[b]furan-3,3a-diol 2,2,2-trifluoroacetate] | 0.4 | 
7 | Nc1nc2cc(O[C@H]3CC[C@@]4(O)[C@@H]3O[C@@H](n3ccc5c(N)ncnc53)[C@@H]4O)ccc2cc1Cl [Example 72, (2R,3R,3aS,6S,6aR)-6-((2-amino-3-chloroquinolin-7-yl)oxy)-2-(4-amino-7H-pyrrolo[2,3-d]pyrimidin-7-yl)hexahydro-3aH-cyclopenta[b]furan-3,3a-diol] | 0.9 | 
8 | Nc1nc2cc(O[C@H]3CC[C@@]4(O)[C@@H]3O[C@@H](n3cc(F)c5c(N)ncnc53)[C@@H]4O)ccc2cc1F [Example 73, (2R,3R,3aS,6S,6aR)-6-((2-amino-3-fluoroquinolin-7-yl)oxy)-2-(4-amino-5-fluoro-7H-pyrrolo[2,3-d]pyrimidin-7-yl)hexahydro-3aH-cyclopenta[b]furan-3,3a-diol] | 0.4 | 
9 | Nc1nc2cc(O[C@H]3CC[C@@]4(O)[C@@H]3O[C@@H](n3cc(F)c5c(N)ncnc53)[C@@H]4O)ccc2cc1Cl [Example 74, (2R,3R,3aS,6S,6aR)-6-((2-amino-3-chloroquinolin-7-yl)oxy)-2-(4-amino-5-fluoro-7H-pyrrolo[2,3-d]pyrimidin-7-yl)hexahydro-3aH-cyclopenta[b]furan-3,3a-diol] | 0.3 | 
10 | CC(C)(O)c1ncnc2c1ccn2[C@@H]1O[C@@H]2[C@@H](Oc3ccc4cc(Br)c(N)nc4c3)CC[C@]2(O)[C@H]1O [Example 78, (2R,3R,3aS,6S,6aR)-6-[(2-amino-3-bromoquinolin-7-yl)oxy]-2-[4-(2-hydroxypropan-2-yl)-7H-pyrrolo[2,3-d]pyrimidin-7-yl]hexahydro-3aH-cyclopenta[b]furan-3,3a-diol] | 13.3 | 
11 | Cc1nc(C)c2ccn([C@@H]3O[C@@H]4[C@@H](Oc5ccc6cc(Br)c(N)nc6c5)CC[C@]4(O)[C@H]3O)c2n1 [Example 80, (2R,3R,3aS,6S,6aR)-6-((2-amino-3-bromoquinolin-7-yl)oxy)-2-(2,4-dimethyl-7H-pyrrolo[2,3-d]pyrimidin-7-yl)hexahydro-3aH-cyclopenta[b]furan-3,3a-diol 2,2,2-trifluoroacetate] | 2.9 | 
12 | CC(C)c1ncnc2c1ccn2[C@@H]1O[C@@H]2[C@H](Cc3ccc4cc(Br)c(N)nc4c3)CC[C@]2(O)[C@H]1O [Example 83, (2R,3R,3aS,6S,6aR)-6-((2-amino-3-bromoquinolin-7-yl)methyl)-2-(4-isopropyl-7H-pyrrolo[2,3-d]pyrimidin-7-yl)hexahydro-3aH-cyclopenta[b]furan-3,3a-diol] | 1.2 | 
13 | Nc1nc2cc(O[C@H]3CC[C@@]4(O)[C@@H]3O[C@@H](n3ccc5cncnc53)[C@@H]4O)ccc2cc1Br [Example 85, (2R,3R,3aS,6S,6aR)-6-((2-amino-3-bromoquinolin-7-yl)oxy)-2-(7H-pyrrolo[2,3-d]pyrimidin-7-yl)hexahydro-3aH-cyclopenta[b]furan-3,3a-diol] | 1.2 | 246
14 | Cc1ncnc2c1ccn2[C@@H]1O[C@@H]2[C@@H](Oc3ccc4cc(F)c(N)nc4c3)CC[C@]2(O)[C@H]1O [Example 86, (2R,3R,3aS,6S,6aR)-6-((2-amino-3-fluoroquinolin-7-yl)oxy)-2-(4-methyl-7H-pyrrolo[2,3-d]pyrimidin-7-yl)hexahydro-3aH-cyclopenta[b]furan-3,3a-diol] | 0.5 | 63.8
15 | Cc1ncnc2c1ccn2[C@@H]1O[C@@H]2[C@@H](Oc3ccc4cc5c(nc4c3)NCC5)CC[C@]2(O)[C@H]1O [Example 89, (2R,3R,3aS,6S,6aR)-6-((2,3-dihydro-1H-pyrrolo[2,3-b]quinolin-7-yl)oxy)-2-(4-methyl-7H-pyrrolo[2,3-d]pyrimidin-7-yl)hexahydro-3aH-cyclopenta[b]furan-3,3a-diol] | 1.3 | 

The remaining compounds from weak to strong by EC50 [1], led by results:

Row | EC50 [1] [nM] | EC50 [2] [nM] | Compound
16 | 2 | 243 | Nc1nc2cc(O[C@H]3CC[C@@]4(O)[C@@H]3O[C@@H](n3ccc5c(CO)ncnc53)[C@@H]4O)ccc2cc1Br [Example 77, (2R,3R,3aS,6S,6aR)-6-[(2-amino-3-bromoquinolin-7-yl)oxy]-2-[4-(hydroxymethyl)-7H-pyrrolo[2,3-d]pyrimidin-7-yl]hexahydro-3aH-cyclopenta[b]furan-3,3a-diol]
17 | 1.6 |  | Nc1nc2cc(O[C@H]3CC[C@@]4(O)[C@@H]3O[C@@H](n3ccc5c(N)ncnc53)[C@@H]4O)ccc2cc1F [Example 71, (2R,3R,3aS,6S,6aR)-6-((2-amino-3-fluoroquinolin-7-yl)oxy)-2-(4-amino-7H-pyrrolo[2,3-d]pyrimidin-7-yl)hexahydro-3aH-cyclopenta[b]furan-3,3a-diol]
18 | 0.8 |  | Nc1nc2cc(C[C@@H]3CC[C@@]4(O)[C@@H]3O[C@@H](n3ccc5c(N)ncnc53)[C@@H]4O)ccc2cc1Cl [Example 67, (2R,3R,3aS,6S,6aR)-6-((2-amino-3-chloroquinolin-7-yl)methyl)-2-(4-amino-7H-pyrrolo[2,3-d]pyrimidin-7-yl)hexahydro-3aH-cyclopenta[b]furan-3,3a-diol]
19 | 0.7 |  | Nc1ncnc2c1ccn2[C@@H]1O[C@@H]2[C@@H](Oc3ccc4cc5c(nc4c3)NCC5)CC[C@]2(O)[C@H]1O [Example 75, (2R,3R,3aS,6S,6aR)-2-(4-amino-7H-pyrrolo[2,3-d]pyrimidin-7-yl)-6-((2,3-dihydro-1H-pyrrolo[2,3-b]quinolin-7-yl)oxy)hexahydro-3aH-cyclopenta[b]furan-3,3a-diol]
20 | 0.7 |  | Cc1nc(C)c2ccn([C@@H]3O[C@@H]4[C@H](Cc5ccc6cc(Br)c(N)nc6c5)CC[C@]4(O)[C@H]3O)c2n1 [Example 81, (2R,3R,3aS,6S,6aR)-6-((2-amino-3-bromoquinolin-7-yl)methyl)-2-(2,4-dimethyl-7H-pyrrolo[2,3-d]pyrimidin-7-yl)hexahydro-3aH-cyclopenta[b]furan-3,3a-diol]
21 | 0.6 |  | Cc1ncnc2c1c(F)cn2[C@@H]1O[C@@H]2[C@H](Cc3ccc4cc(Br)c(N)nc4c3)CC[C@]2(O)[C@H]1O [Example 84, (2R,3R,3aS,6S,6aR)-6-((2-amino-3-bromoquinolin-7-yl)methyl)-2-(5-fluoro-4-methyl-7H-pyrrolo[2,3-d]pyrimidin-7-yl)hexahydro-3aH-cyclopenta[b]furan-3,3a-diol]
22 | 0.5 |  | Nc1nc2cc(C[C@@H]3CC[C@@]4(O)[C@@H]3O[C@@H](n3ccc5c(C6CC6)ncnc53)[C@@H]4O)ccc2cc1Br [Example 87, (2R,3R,3aS,6S,6aR)-6-((2-amino-3-bromoquinolin-7-yl)methyl)-2-(4-cyclopropyl-7H-pyrrolo[2,3-d]pyrimidin-7-yl)hexahydro-3aH-cyclopenta[b]furan-3,3a-diol]
23 | 0.2 |  | Cc1ncnc2c1ccn2[C@@H]1O[C@@H]2[C@H](Cc3ccc4cc(C(F)(F)F)c(N)nc4c3)CC[C@]2(O)[C@H]1O [Example 88, (2R,3R,3aS,6S,6aR)-6-((2-amino-3-(trifluoromethyl)quinolin-7-yl)methyl)-2-(4-methyl-7H-pyrrolo[2,3-d]pyrimidin-7-yl)hexahydro-3aH-cyclopenta[b]furan-3,3a-diol]
